Experimental data as given in ChEMBL document CHEMBL1201862, “PubChem BioAssay data set” (2004).
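In this assay, cells in 96-well plates receive the compound at five concentrations for 48 hours. Endpoints are linearly interpolated between the surrounding concentrations. At the GI50, growth is halved.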 Activity calls are given as the source filed them. Cut-off read from the data, not from the text of the source: active = GI50 up to about 1.1 µM and inactive = higher.

Experiments:
Experiment in all cases: growth of human tumour cells (NCI), 48 h
[1] = test system: SK-OV-3
[2] = test system: OVCAR-8
[3] = test system: SR
[4] = test system: OVCAR-3
[5] = test system: PC-3
[6] = test system: LOX IMVI
[7] = test system: MDA-MB-231
[8] = test system: COLO 205
[9] = test system: SK-MEL-5
[10] = test system: SF-268
[11] = test system: HCT-116
[12] = test system: RPMI-8226
[13] = test system: SF-539
[14] = test system: NCI/ADR-RES
[15] = test system: KM12
[16] = test system: ACHN
[17] = test system: EKVX
[18] = test system: HCC 2998
[19] = test system: MOLT-4
[20] = test system: RXF 393

Q: What does the source list for `O=C(CCBr)N1CCN(C(=O)CCBr)CC1` [PIPOBROMAN]?
A: GI50 [1]: 105 µM (inactive); GI50 [2]: 86.3 µM (inactive); GI50 [3]: 8.04 µM (inactive); GI50 [4]: 96.6 µM (inactive); GI50 [5]: 113 µM (inactive); GI50 [6]: 48.3 µM (inactive); GI50 [7]: 113 µM (inactive); GI50 [8]: 92.3 µM (inactive); GI50 [9]: 64.1 µM (inactive); GI50 [10]: 39.3 µM (inactive); GI50 [11]: 71.3 µM (inactive); GI50 [12]: 98.4 µM (inactive); GI50 [13]: 62.5 µM (inactive); GI50 [14]: 81.8 µM (inactive); GI50 [15]: > 93.5 µM (inactive); GI50 [16]: 29 µM (inactive); GI50 [17]: 85.7 µM (inactive); GI50 [18]: 69.3 µM (inactive); GI50 [19]: 13.4 µM (inactive); GI50 [20]: 68.2 µM (inactive)

Q: With `CCCCCCCCCCNC1CC(OC2CC(O)(C(O)CO)Cc3c(O)c4c(c(O)c32)C(=O)c2c(OC)cccc2C4=O)OC(C)C1O` (stereo not given) as the compound, how does the GI50 [1] read?
A: 1.6 µM (inactive)

Q: What about the GI50 [2] of the same compound?
A: 1.55 µM (inactive)

Q: And the GI50 [3]?
A: 0.408 µM (active)

Q: What about the GI50 [4] of the same compound?
A: 1.69 µM (inactive)

Q: What about the GI50 [5] of the same compound?
A: 1.47 µM (inactive)

Q: And the GI50 [6]?
A: 0.641 µM (active)

Q: And the GI50 [7]?
A: 1.36 µM (inactive)

Q: And the GI50 [8]?
A: 1.66 µM (inactive)

Q: What about the GI50 [9] of the same compound?
A: 1.74 µM (inactive)

Q: What about the GI50 [10] of the same compound?
A: 1.92 µM (inactive)

Q: And the GI50 [11]?
A: 0.692 µM (active)

Q: What about the GI50 [12] of the same compound?
A: 0.839 µM (active)

Q: What about the GI50 [13] of the same compound?
A: 1.77 µM (inactive)

Q: And the GI50 [14]?
A: 1.88 µM (inactive)

Q: What about the GI50 [15] of the same compound?
A: 1.5 µM (inactive)

Q: And the GI50 [16]?
A: 1.73 µM (inactive)

Q: And the GI50 [17]?
A: 1.78 µM (inactive)

Q: And the GI50 [18]?
A: 1.33 µM (inactive)

Q: And the GI50 [19]?
A: 0.189 µM (active)

Q: And the GI50 [20]?
A: 1.26 µM (inactive)

Q: For `Cc1cc(-c2nc3cc(F)ccc3s2)ccc1N`, which GI50 [1] is on record?
A: 88.5 µM (inactive)

Q: What about the GI50 [2] of the same compound?
A: 36.3 µM (inactive)

Q: What about the GI50 [3] of the same compound?
A: < 0.0106 µM (active)

Q: What about the GI50 [4] of the same compound?
A: 28.7 µM (inactive)

Q: What about the GI50 [5] of the same compound?
A: 17 µM (inactive)

Q: And the GI50 [6]?
A: > 56.9 µM (inactive)

Q: What about the GI50 [7] of the same compound?
A: 8.11 µM (inactive)

Q: What about the GI50 [8] of the same compound?
A: 8.69 µM (inactive)

Q: What about the GI50 [9] of the same compound?
A: 42.4 µM (inactive)

Q: What about the GI50 [10] of the same compound?
A: 20.3 µM (inactive)

Q: What about the GI50 [11] of the same compound?
A: 21.1 µM (inactive)

Q: And the GI50 [12]?
A: > 31.3 µM (inactive)

Q: What about the GI50 [13] of the same compound?
A: 20.4 µM (inactive)

Q: And the GI50 [14]?
A: 75.9 µM (inactive)

Q: And the GI50 [15]?
A: 42.8 µM (inactive)

Q: And the GI50 [16]?
A: 22.4 µM (inactive)

Q: What about the GI50 [17] of the same compound?
A: 11.2 µM (inactive)

Q: And the GI50 [18]?
A: < 0.01 µM (active)

Q: What about the GI50 [19] of the same compound?
A: 34.2 µM (inactive)

Q: What about the GI50 [20] of the same compound?
A: 17.2 µM (inactive)

Q: Which results are given for `c1ccc(C2=NCCN2)c(C2=NCCN2)c1`?
A: GI50 [1]: > 100 µM (inactive); GI50 [2]: > 100 µM (inactive); GI50 [3]: > 100 µM (inactive); GI50 [4]: > 100 µM (inactive); GI50 [5]: > 100 µM (inactive); GI50 [6]: > 100 µM (inactive); GI50 [7]: > 100 µM (inactive); GI50 [8]: > 100 µM (inactive); GI50 [9]: > 100 µM (inactive); GI50 [10]: > 100 µM (inactive); GI50 [11]: > 100 µM (inactive); GI50 [12]: > 100 µM (inactive); GI50 [13]: > 100 µM (inactive); GI50 [14]: > 100 µM (inactive); GI50 [15]: > 100 µM (inactive); GI50 [16]: > 100 µM (inactive); GI50 [17]: > 100 µM (inactive); GI50 [18]: 57.3 µM (inactive); GI50 [19]: > 100 µM (inactive); GI50 [20]: > 100 µM (inactive)
